Patent publication US20220127247A1, “N-(PYRIDIN-2-YL)PYRIDINE-SULFONAMIDE DERIVATIVES AND THEIR USE IN THE TREATMENT OF DISEASE” (NOVARTIS AG, priority 2019, published 2022)
pEC50: −log10 of the molar value.

Molecular target: T1, delF508-CFTR (Homo sapiens, UniProt P13569, DEL508-508)
T1 construct: expressed in transfected cells
Experiment: Measurement of delF508-CFTR-HRP surface expression in CFBE41o- cells
Assay type: cell-based
Settings: for pEC50: HRP-tagged delF508-CFTR in CFBE41o- cells, 24 h with compound, luminescence, 10-point curve, top 10 μM; for Emax: efficacy relative to reference compound 3-(6-(1-(2,2-difluorobenzo[d][1,3]dioxol-5-yl)cyclopropane-1-carboxamido)-3-methylpyridin-2-yl)benzoic acid, CFBE41o- cells, 24 h, read-out: DelF508-CFTR-HRP Amax %
Summary of the method: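 CFBE41o- cells stably expressing delF508-CFTR with HRP in the fourth extracellular loop, induced with 500 ng/mL doxycycline for 48 h, then treated with compound (top 10 μM, 10-point 3-fold) for 24 h at 37° C. Surface HRP detected by luminescence with cell-impermeant substrate; EC50 from logistic fit of triplicates, normalized to lowest concentration.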

T1 sequence (P13569 with tags, fused parts or gaps DEL508-508): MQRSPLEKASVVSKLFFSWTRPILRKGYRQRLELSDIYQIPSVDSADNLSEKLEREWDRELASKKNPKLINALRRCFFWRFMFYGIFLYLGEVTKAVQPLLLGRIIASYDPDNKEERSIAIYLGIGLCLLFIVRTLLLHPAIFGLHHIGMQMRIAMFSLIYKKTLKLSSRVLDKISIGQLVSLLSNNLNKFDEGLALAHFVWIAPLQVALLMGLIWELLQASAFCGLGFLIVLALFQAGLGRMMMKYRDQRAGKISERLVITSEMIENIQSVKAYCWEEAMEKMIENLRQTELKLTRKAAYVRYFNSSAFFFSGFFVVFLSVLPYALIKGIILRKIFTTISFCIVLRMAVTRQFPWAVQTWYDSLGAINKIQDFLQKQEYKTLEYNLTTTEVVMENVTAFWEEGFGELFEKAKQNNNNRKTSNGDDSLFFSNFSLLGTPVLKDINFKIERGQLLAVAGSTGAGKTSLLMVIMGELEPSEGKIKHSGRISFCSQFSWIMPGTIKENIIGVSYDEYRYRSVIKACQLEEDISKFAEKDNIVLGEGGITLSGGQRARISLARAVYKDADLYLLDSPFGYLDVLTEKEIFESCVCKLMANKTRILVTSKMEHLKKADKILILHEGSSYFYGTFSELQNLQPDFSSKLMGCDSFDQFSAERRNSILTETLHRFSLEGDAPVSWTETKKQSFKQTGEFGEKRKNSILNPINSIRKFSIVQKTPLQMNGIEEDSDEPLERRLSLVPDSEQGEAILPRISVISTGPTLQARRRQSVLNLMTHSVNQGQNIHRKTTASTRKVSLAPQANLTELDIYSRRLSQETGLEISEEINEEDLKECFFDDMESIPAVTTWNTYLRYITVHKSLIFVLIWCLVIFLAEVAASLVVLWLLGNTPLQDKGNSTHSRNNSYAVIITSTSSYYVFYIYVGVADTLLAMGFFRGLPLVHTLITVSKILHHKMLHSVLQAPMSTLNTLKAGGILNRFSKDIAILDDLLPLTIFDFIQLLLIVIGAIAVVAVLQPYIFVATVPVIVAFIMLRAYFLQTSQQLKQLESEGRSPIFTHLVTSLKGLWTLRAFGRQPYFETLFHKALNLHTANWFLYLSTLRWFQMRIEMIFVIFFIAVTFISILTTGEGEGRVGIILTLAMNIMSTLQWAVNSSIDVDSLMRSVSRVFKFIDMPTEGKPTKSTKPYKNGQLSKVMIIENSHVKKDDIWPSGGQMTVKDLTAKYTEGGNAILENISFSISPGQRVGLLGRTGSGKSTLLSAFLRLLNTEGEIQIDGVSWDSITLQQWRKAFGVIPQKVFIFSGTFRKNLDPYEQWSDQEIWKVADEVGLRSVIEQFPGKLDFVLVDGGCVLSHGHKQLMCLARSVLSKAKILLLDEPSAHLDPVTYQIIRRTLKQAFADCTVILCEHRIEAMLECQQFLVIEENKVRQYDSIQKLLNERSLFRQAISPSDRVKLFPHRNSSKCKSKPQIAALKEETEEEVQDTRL

pEC50 | Emax [%] | SMILES
5.85 |  | CCc1ccc(F)cc1-c1nc(NS(=O)(=O)c2cccc(N(CCC(=O)O)C(C)C)n2)ccc1C(F)(F)F [Compound 119, 3-((6-(N-(6-(2-ethyl-5-fluorophenyl)-5-(trifluoromethyl)pyridin-2-yl)sulfamoyl)pyridin-2-yl)(isopropyl)amino)propanoic Acid]
5.86 | 330 | CCc1ccccc1-c1nc(NS(=O)(=O)c2cccc(OC3CCC(C(=O)O)CC3)n2)ccc1C(F)(F)F (centres unmarked) [Compound 120, 4-((6-(N-(6-(2-ethylphenyl)-5-(trifluoromethyl)pyridin-2-yl)sulfamoyl)pyridin-2-yl)nxy)cyclohexane-1-carboxylic Acid]
5.48 | 167 | Cc1ccccc1-c1nc(NS(=O)(=O)c2cccc(OCCC(=O)O)n2)ccc1C(F)(F)F [Compound 121, 3-((6-(N-(6-(o-tolyl)-5-(trifluoromethyl)pyridin-2-yl)sulfamoyl)pyridin-2-yl)nxy)propanoic Acid]
5.76 | 297 | Cc1cccc(C)c1-c1nc(NS(=O)(=O)c2cccc(N3CCC[C@H]3c3nnn[nH]3)n2)ccc1Cl [Compound 124, (S)-6-(2-(1H-tetrazol-5-yl)pyrrolidin-1-yl)-N-(5-chloro-6-(2,6-dimethylphenyl)pyridin-2-yl)pyridine-2-sulfonamide]
5.69 | 403 | Cc1ccccc1-c1nc(NS(=O)(=O)c2cccc(N(C)CC3(C(=O)O)CCCC3)n2)ccc1C(F)(F)F [Compound 130, 1-((methyl(6-(N-(6-(o-tolyl)-5-(trifluoromethyl)pyridin-2-yl)sulfamoyl)pyridin-2-yl)amino)methyl)cyclopentane-1-carboxylic Acid]
5.69 |  | Cc1ccccc1-c1nc(NS(=O)(=O)c2cccc(N(C)CC3(C(=O)O)CCC3)n2)ccc1C(F)(F)F [Compound 137, 1-((methyl(6-(N-(6-(o-tolyl)-5-(trifluoromethyl)pyridin-2-yl)sulfamoyl)pyridin-2-yl)amino)methyl)cyclobutane-1-carboxylic Acid]
5.70 | 463 | Cc1ccc(F)cc1-c1nc(NS(=O)(=O)c2cccc(N(C)CC3(C(=O)O)CCOCC3)n2)ccc1C(F)(F)F [Compound 138, 4-(((6-(N-(6-(5-fluoro-2-methylphenyl)-5-(trifluoromethyl)pyridin-2-yl)sulfamoyl)pyridin-2-yl)(methyl)amino)methyl)tetrahydro-2H-pyran-4-carboxylic Acid]
5.95 |  | Cc1ccc(F)cc1-c1nc(NS(=O)(=O)c2cccc(N(C)CC3(C(=O)O)CCC3)n2)ccc1C(F)(F)F [Compound 139, 1-(((6-(N-(6-(5-fluoro-2-methylphenyl)-5-(trifluoromethyl)pyridin-2-yl)sulfamoyl)pyridin-2-yl)(methyl)amino)methyl)cyclobutane-1-carboxylic Acid]
5.53 | 209 | CCN(CCC(=O)O)c1cc(S(=O)(=O)Nc2ccc(Cl)c(-c3c(C)cccc3C)n2)ccn1 [Compound 140, 3-((4-(N-(5-chloro-6-(2,6-dimethylphenyl)pyridin-2-yl)sulfamoyl)pyridin-2-yl)(ethyl)amino)propanoic Acid]
5.40 | 291 | CCC(CC(=O)O)Nc1cc(S(=O)(=O)Nc2ccc(Cl)c(-c3c(C)cccc3C)n2)ccn1 (centres unmarked) [Compound 141]
5.35 | 84 | Cc1cccc(C)c1-c1nc(NS(=O)(=O)c2ccnc(NC(C)CC(=O)O)c2)ccc1Cl (centres unmarked) [Compound 142, 3-((4-(N-(5-chloro-6-(2,6-dimethylphenyl)pyridin-2-yl)sulfamoyl)pyridin-2-yl)amino)butanoic Acid]
5.62 |  | Cc1ccccc1-c1nc(NS(=O)(=O)c2cccc(NC(C(=O)O)C34CC5CC(CC(C5)C3)C4)n2)ccc1C(F)(F)F (centres unmarked) [Compound 143, 2-(adamantan-1-yl)-2-((6-(N-(6-(o-tolyl)-5-(trifluoromethyl)pyridin-2-yl)sulfamoyl)pyridin-2-yl)amino)acetic Acid]
5.34 | 52 | CCN(CCC(=O)O)c1cc(S(=O)(=O)Nc2ccc(Cl)c(-c3cc(F)ccc3C)n2)ccn1 [Compound 144, 3-((4-(N-(5-chloro-6-(5-fluoro-2-methylphenyl)pyridin-2-yl)sulfamoyl)pyridin-2-yl)(ethyl)amino)propanoic Acid]
5.74 |  | CCN(CCC(=O)O)c1cccc(S(=O)(=O)Nc2ccc(C(F)(F)F)c(-c3c(C)cccc3C)n2)n1 [Compound 145, 3-((6-(N-(6-(2,6-dimethylphenyl)-5-(trifluoromethyl)pyridin-2-yl)sulfamoyl)pyridin-2-yl)(ethyl)amino)propanoic Acid]
5.60 | 60 | Cc1ccccc1-c1nc(NS(=O)(=O)c2cccc(NCC(=O)O)n2)ccc1C(F)(F)F [Compound 146, (6-(N-(6-(o-tolyl)-5-(trifluoromethyl)pyridin-2-yl)sulfamoyl)pyridin-2-yl)glycine]
5.94 | 802 | Cc1ccccc1-c1nc(NS(=O)(=O)c2cccc(N(CCC(=O)O)C3CCC3)n2)ccc1C(F)(F)F [Compound 147, 3-(cyclobutyl(6-(N-(6-(o-tolyl)-5-(trifluoromethyl)pyridin-2-yl)sulfamoyl)pyridin-2-yl)amino)propanoic acid]
5.78 |  | Cc1ccccc1-c1nc(NS(=O)(=O)c2cccc(N(CCC(=O)O)CCC(F)(F)F)n2)ccc1C(F)(F)F [Compound 150, 3-((6-(N-(6-(o-tolyl)-5-(trifluoromethyl)pyridin-2-yl)sulfamoyl)pyridin-2-yl)(3,3,3-trifluoropropyl)amino)propanoic Acid]
5.72 |  | Cc1ccc(F)cc1-c1nc(NS(=O)(=O)c2cccc(N(CCC(=O)O)CCC(F)(F)F)n2)ccc1C(F)(F)F [Compound 151, 3-((6-(N-(6-(5-fluoro-2-methylphenyl)-5-(trifluoromethyl)pyridin-2-yl)sulfamoyl)pyridin-2-yl)(3,3,3-trifluoropropyl)amino)propanoic Acid]
6.11 | 641 | CCCCN(CCC(=O)O)c1cccc(S(=O)(=O)Nc2ccc(C(F)(F)F)c(-c3ccccc3C)n2)n1 [Compound 152, 3-(butyl(6-(N-(6-(o-tolyl)-5-(trifluoromethyl)pyridin-2-yl)sulfamoyl)pyridin-2-yl)amino)propanoic Acid]
6.09 | 770 | CCCCN(CCC(=O)O)c1cccc(S(=O)(=O)Nc2ccc(C(F)(F)F)c(-c3cc(F)ccc3C)n2)n1 [Compound 153, 3-(butyl(6-(N-(6-(5-fluoro-2-methylphenyl)-5-(trifluoromethyl)pyridin-2-yl)sulfamoyl)pyridin-2-yl)amino)propanoic Acid]
6.03 | 686 | Cc1ccccc1-c1nc(NS(=O)(=O)c2cccc(N(CCCC(=O)O)CC(C)C)n2)ccc1Cl [Compound 154, 4-((6-(N-(5-chloro-6-(o-tolyl)pyridin-2-yl)sulfamoyl)pyridin-2-yl)(isobutyl)amino)butanoic Acid]
6.17 | 699 | Cc1cccc(C)c1-c1nc(NS(=O)(=O)c2cccc(N(CCCC(=O)O)CC(C)C)n2)ccc1Cl [Compound 155, 4-((6-(N-(5-chloro-6-(2,6-dimethylphenyl)pyridin-2-yl)sulfamoyl)pyridin-2-yl)(isobutyl)amino)butanoic Acid]
5.74 | 839 | COCCN(CCCC(=O)O)c1cccc(S(=O)(=O)Nc2ccc(C(F)(F)F)c(-c3ccccc3C)n2)n1 [Compound 158, 4-((2-methoxyethyl)(6-(N-(6-(o-tolyl)-5-(trifluoromethyl)pyridin-2-yl)sulfamoyl)pyridin-2-yl)amino)butanoic Acid]

SMILES | pEC50 | Emax [%]
CCC(NC(=O)C1CCC(Nc2cccc(S(=O)(=O)Nc3ccc(Cl)c(-c4ccccc4C)n3)n2)CC1)C(=O)O (centres unmarked) [Compound 136, 2-(4-((6-(N-(5-chloro-6-(o-tolyl)pyridin-2-yl)sulfamoyl)pyridin-2-yl)amino)cyclohexane-1-carboxamido)butanoic Acid] | 5.64 | 952
